Measurements: patent publication US5162316A, “Pyrimido[4,5-d]pyrimidine derivatives for use as bronchodilators” (Smith Kline & French Laboratories Limited, priority 1988, dated 1992)

Columns and labels:
[1] = test system: U46619-induced bronchoconstriction; assay: Bronchodilatation in vivo: inhibition of U46619-induced bronchoconstriction in anaesthetised guinea-pigs (Konzett-Rossler); set-up: species or system guinea-pig (Dunkin Hartley, male); conditions: for ED50: Cavia porcellus, iv, i.v. bolus, anaesthetised guinea-pig, range for the group of listed Examples, read-out: BD50 (dose of compound required to reduce the U46619-induced bronchoconstriction by 50%)
Procedure: Male guinea-pigs of the Dunkin Hartley strain (500-600g) were anaesthetised with Sagatal (pentobarbital sodium) (60 mg/kg). Airway resistance was measured using a modification of the classical Konzett-Rossler technique (J. Pharm. Methods, 13, 309- 315, 1985). […] The compound under test was administered by i.v. bolus injection, and the subsequent peak inhibition of bronchoconstriction recorded.
The dose of compound required to reduce the U46619-induced bronchoconstriction by 50% is given as the BD50. The compounds of Examples 1, 7, 8, 12, 13, 14, 18, 20, 21, 22 and 24 had BD50 values in the range 0.48-3.85 μmol/kg.

[2] = test system: ovalbumen-induced bronchoconstrictor response; assay: Anti-allergic activity: ovalbumen-induced bronchoconstriction in sensitised guinea-pigs; format: in vivo, guinea-pig (Duncan Hartley, male); conditions: ovalbumen 1 mg/kg i.v., n=6
Procedure: Male Duncan Hartley guinea-pigs (250-300 g) were sensitised to ovalbumen by i.p. injection of 2 ml of 50mg.ml^-1 i.p. and 0.2 ml s.c. Three weeks later they were anaesthetised with 60mg.kg^-1 sodium pentabarbitone. The trachea was cannulated and the animal respired at a rate of 40 breaths per minute and at an initial tracheal inflation pressure of 16 mmHg. Tracheal inflation pressure was measured by a transducer connected to a side arm of the respiration circuit. The carotid artery was cannulated for the measurement of blood pressure and the signal was used to trigger an instantaneous rate meter. A jugular vein was cannulated for the administration of drug and allergen. After surgery the animals were allowed to stabilise and the drug was administered i.v. as a bolus. Following this, ovalbumen 1 mg.kg^-1 was injected i.v. as the antigen challenge either 2, 15 or 30 minutes following drug treatment and the peak bronchoconstrictor response recorded. For the control group ovalbumen only was given. One ovalbumen challenge per guinea-pig was used and n=6 for each time point. The percentage increase in tracheal inflation pressure was calculated. The following results indicating an anti-allergic activity were obtained.

[3] = target: T1, calmodulin insensitive cyclic GMP phosphodiesterase (Sus scrofa, UniProt A0A287B475); assay: Kinetic properties of the isolated PDE activity; format: biochemical, pig; conditions: at 1 μM substrate
T1 construct: kept on ice until the pulmonary arteries or aortas could be dissected and excess fat removed; from tissue; host or cells: pig pulmonary arteries or aortas; soluble fraction purified over DEAE-Sepharose, calmodulin-agarose and cibacron blue-agarose
Procedure: Eight pig hearts/lungs were collected from the abattoir and kept on ice until the pulmonary arteries or aortas could be dissected and excess fat removed. 120 g of tissue was dissected. […] On the day of homogenisation, tissue was cooled with liquid nitrogen and broken into small pieces by striking with a hammer. […] Phenylmethanesulphonylfluoride (PMSF) was added to a final concentration of 50 μM just prior to homogenisation. The homogenate was then centrifuged for 20 minutes at 30,000 g. Supernatant was filtered firstly through glass wool and then a 0.45 μm filter. […] The column was washed with 150 mls of homogenisation buffer and PDE activities eluted with 150 ml of homogenisation buffer containing 100 mM sodium acetate.
Fractions 2 and 3 were pooled and BIS-TRIS, MgCl2, CaCl2 added to final concentrations of 50 mM, 7 mM and 5 mM respectively. PMSF, leupeptin, antipain and pepstatin A were also added at the concentrations described above for these components. The pH of this pooled sample was corrected to 6.9.
The first column in the tandem was a 5 ml calmodulin-agarose column (Sigma) and the second a 1.5 ml cibacron blue 3GA-agarose column (Sigma). Both columns were pre-equilibrated with 50 mM BIS-TRIS, 5 mM MgCl2, 5 mM CaCl2, 5 mM benzamidine, 2 mM dithiothreitol pH 6.9. Following application of the sample the columns were washed with 20 ml of equilibration buffer. […]

hindquarter blood flow = assay: Vasodilatation in vivo: hindquarter blood flow in anaesthetised rats; set-up: species or system rat (Wistar, male); conditions: bolus i.v., 50 μmol/kg, rat
Procedure: Male Wistar rats (300 g) were anaesthetised with a sodium 5-ethyl-5-(1methylpropyl)-2-thiobarbiturate/sodium pentobarbitone mixture i.p. (62.5 and 22.5 mg/kg respectively). The trachea was cannulated and the rats breathed spontaneously air enriched with O2 (5 ml/min). Blood pressure was recorded from a carotid artery and a jugular vein was cannulated for the administration of compounds. The temperature of the animal was maintained at 37° C. by the use of an electric blanket. […] The perfusion circuit was primed with 5% bovine serum albumin dissolved in 0.9% sodium chloride solution, pH adjusted to 7.4. Initially the pump rate was set between 10 and 15 ml/min to match the hind quarter perfusion pressure to that of the systemic circulation. Once set, the pressure remained unaltered for the rest of the experiment. A change in the speed of the pump (equivalent to hindquarter blood flow) was used to assess the changes in hindquarter vascular resistance.

[4] = test system: [H][C@@]12COP(=O)(O)O[C@@]1([H])[C@@H](O)[C@H](n1cnc3c(=O)[nH]c(N)nc31)O2; assay: purified protein, by the assay type; conditions: other: substrate of the isolated PDE activity

| Compound | ED50 [1] | also measured |
| --- | --- | --- |
| CCCCCC(O)C=CC1C2CC(CO2)C1CC=CCCCC(=O)O (centres unmarked) [Example U46619, 9,11-methaneoepoxy-PGH2, reference compound] |  | increase from basal airway resistance (steady state of bronchoconstriction) ([1]; U46619 infused i.v. at 2.5 nmol/min): approximately 120% |
| CCCOc1ccccc1-c1nc2nc(NC)ncc2c(=O)[nH]1 [Example 8, 7-Methylamino-4-oxo-2-(2-propoxyphenyl)-3,4-dihydropyrimido[4.5-d]pyrimidine] | 0.48 to 3.85 µmol/kg | % Inhibition of Control Bronchoconstrictor Response 30 min after drug administration ([2]; dose 6.0 μmol/kg i.v.): 23% |
| CCCOc1ccccc1-c1nc2nc(NC3CC3)ncc2c(=O)[nH]1 [Example 18, 7-Cyclopropylamino-4-oxo-2-(2-propoxyphenyl)-3,4-dihydropyrimido[4,5-d]pyrimidine] | 0.48 to 3.85 µmol/kg | % Inhibition of Control Bronchoconstrictor Response 30 min after drug administration ([2]; dose 22.6 μmol/kg i.v.): 44% |
| CCCOc1ccccc1-c1nc2nc(NCCO)ncc2c(=O)[nH]1 [Example 13] | 0.48 to 3.85 µmol/kg | % Inhibition of Control Bronchoconstrictor Response 30 min after drug administration ([2]; dose 4.8 μmol/kg i.v.): 21% |
| Nc1nc2c(ncn2[C@@H]2O[C@@H]3COP(=O)(O)O[C@H]3[C@H]2O)c(=O)[nH]1 [cGMP] |  | Ratio of cGMP/cAMP hydrolysis [3]: 30 |
| CCCOc1ccccc1-c1nc2nc(SC)ncc2c(=O)[nH]1 [Example 1, 7-Methylthio-4-oxo-2-(2-propoxyphenyl)-3,4-dihydropyrimido-[4.5-d]pyrimidin] | 0.48 to 3.85 µmol/kg | increase in hindquarter blood flow (hindquarter blood flow): 43.7% |
| CCCNc1ncc2c(=O)[nH]c(-c3ccccc3OCCC)nc2n1 [Example 20, 7-Propylamino-4-oxo-2-(2-propoxyphenyl)-3,4-dihydropyrimido[4,5-d]pyrimidine] | 0.48 to 3.85 µmol/kg |  |
| CCCOc1ccccc1-c1nc2nc(NCCOC)ncc2c(=O)[nH]1 [Example 22] | 0.48 to 3.85 µmol/kg |  |
| CCCOc1ccccc1-c1nc2nc(NCC)ncc2c(=O)[nH]1 [Example 12, 7-Ethylamino-4-oxo-2-(2-propoxyphenyl)-3,4-dihydropyrimido[4,5-d]pyrimidine] | 0.48 to 3.85 µmol/kg | % Inhibition of Control Bronchoconstrictor Response 30 min after drug administration ([2]; dose 18.7 μmol/kg i.v.): 24% |
| CCCOc1ccccc1-c1nc2nc(CC)ncc2c(=O)[nH]1 [Example 14, 7-Ethyl-4-oxo-2-(2-propoxyphenyl)-3,4-dihydropyrimido[4,5-d]pyrimidine] | 0.48 to 3.85 µmol/kg |  |
| calmodulin insensitive cyclic GMP phosphodiesterase (Sus scrofa) |  | Km [4]: 1.3 µM |
| CCCOc1ccccc1-c1nc2nc(N)ncc2c(=O)[nH]1 [Example 7, 7 Amino 4-oxo-2-(2-propoxyphenyl)-3,4-dihydropyrimido[4.5-d]pyrimidine] | 0.48 to 3.85 µmol/kg |  |
| CCCOc1ccccc1-c1nc2nc(NCC(C)O)ncc2c(=O)[nH]1 (centres unmarked) [Example 24, 7-(2-Hydroxypropylamino)-4-oxo-2-(2-propoxyphenyl)-3,4-dihydropyrimido[4,5-d]pyrimidine] | 0.48 to 3.85 µmol/kg | % Inhibition of Control Bronchoconstrictor Response 30 min after drug administration ([2]; dose 6.5 μmol/kg i.v.): 24% |
| CCCOc1ccccc1-c1nc2nc(NCCCO)ncc2c(=O)[nH]1 [Example 21, 7-(3-Hydroxypropylamino)-4-oxo-2-(2-propoxyphenyl)-3,4-dihydropyrimido[4.5 d]pyrimidine] | 0.48 to 3.85 µmol/kg |  |
